These are literature values, as cited in patent publication US20220265566A1, “ATOVAQUONE NANOPARTICULATE COMPOSITIONS” (Tulex Pharmaceuticals Inc., priority 2018, published 2022).

In the case of `O=C1C(O)=C([C@H]2CC[C@H](c3ccc(Cl)cc3)CC2)C(=O)c2ccccc21` [ATQ, trans-2-[4-(4-chlorophenyl)cyclohexyl]-3-hydroxy-1,4-naphthalenedione], the Solubility in water entry is reported as “practically insoluble in water”.
